The nature of data set [1]: 200 μL medium with five pre-germinated Arabidopsis (Ler) seedlings. Particulars: 22°C.
For data set [2], the system named is primary roots / root meristems (RMs) of Ler seedlings. Kind of data set: In vitro root assay in Ler seedlings. It is filed as in vivo, Arabidopsis. Particulars: for Concentration at which the peptide was active in the root assay (primary root length): Ler seedlings, 8-d inoculation, tested at 10 nM, 30 nM, 100 nM, 1 μM. As to the method: (§1) Similarly, in vitro root assays were performed in Ler and clv2-1 (in Ler background) seedlings.
To evaluate activities of above-mentioned synthetic peptides with various N-terminal extensions, we performed in vitro root assays using Ler seedlings. The lengths of primary roots were measured after 8-d inoculations with either CLV3p12, L-CLV3p13, EEL-CLV3p15, HEEL-CLV3p16 or LHEEL-CLV3p17 at concentrations of 10 nM, 30 nM, 100 nM, or 1 μM (Figure 4).
(§2) Seeds of clv1-1, clv2-1 and clv3-2 (all in Ler background), Col-0 and Ler were gas-sterilized as reported previously, and imbibed in sterilized distilled water at 4°C in dark for 2 days before plating. In vitro root and SAM assays were performed as described.

A short description of data set [3]: 200 μL liquid medium with five pre-germinated Ler seedlings (half-strength Murashige and Skoog, 1% sucrose, MES). Particulars: Arabidopsis thaliana (Ler), 22°C, up to 48 hrs.
The subject of data set [4] is shoot apical meristems (SAMs) of clv3-2 seedlings. In words: In vitro SAM assay in clv3-2 seedlings. It is filed as in vivo, Arabidopsis. Particulars: for Sizes of SAMs of clv3-2 seedlings after treatment: 1 μM fusion protein, 8 days, 8-d-old clv3-2 seedlings, n = 8, P < 0.01 Student's t-test. As to the method:
(§3) In vitro activity assays of the TH-ProCLV3 fusion protein in SAMs were performed using clv3-2 and clv1-1 (both in Ler background) mutants of Arabidopsis, as described previously.
as §2

Another data set concerns CLV1. Particulars: tobacco BY-2 cells; cited from earlier work. An excerpt: (§4) CLV3 is one of the well-studied peptide hormones in plants. The CLV3 gene encodes a 96-AA secretory protein that functions in a feedback regulation loop to restrict the number of stem cells in SAMs by repressing the expression of the WUSCHEL (WUS) transcription factor [16, 21]. […] CLV3 sh ...

For data set [5], the system named is shoot and root meristems (RMs). Conditions: synthetic peptides corresponding to the CLE motif; cited from earlier work.
Text: as §4

Data set [6] has as its system roots / root meristems (RMs) of clv2-1 seedlings. Kind of data set: In vitro root assay in clv2-1 seedlings. Conditions: 1 μM TH-ProCLV3, 8-d-old clv2-1 seedlings, n = 8. It is filed as in vivo, Arabidopsis. As to the method: as §1, §2
A further data set deals with WUS expression. In words: qRT-PCR of WUS expression in shoot apices of clv3-2 seedlings. It is filed as in vivo, Arabidopsis. Conditions: 8-d-old clv3-2 seedlings, 1 μM fusion protein in liquid medium, normalised to EIF4A1, 3 independent biological repeats. Here is the method:
To address if these fusion proteins are able to repress the WUS expression in SAMs, qRT-PCR analyses were performed with cDNAs from shoot apices after treatments with various fusion proteins. […] In contrast, the expression level of WUS in the TH-ProCLV3Leu69Ala-treated clv3-2 seedlings was only about 50% of the untreated ones (Figure 5F).
Total RNA was extracted using a Plant Total RNA Isolation Kit (TIANGEN, Beijing, China) from approximately 30 shoot apices excised from 8-d-old seedlings cultured in fusion protein-containing liquid media, and then reverse transcribed to cDNA with the First Strand cDNA Synthesis Kit ReverTra Ace-α (TOYOBO, Japan). qRT–PCR was performed in a Rotor-Gene 3000 thermocycler (Corbett, Australia) with the SYBR Premix ExTaq II kit (TaKaRa, Dalian, China), and the relative expression levels of the WUS [GenBank: NM_127349.3] were normalized against the internal control EIF4A1 [GenBank: NM_001084679.1] and calculated using the Rotor-Gene 6 software v 6.0 (Corbett, Australia) according to the 2^-∆∆CT method. Primer pairs of 5’-[…]-3’ and 5’-[…] -3’, and 5’-TTCTCTGCGACAATGCCTC-3’ and 5’-GCTTCCAGTCTTCTTTC TCCAC-3’ were used to amplify WUS and EIF4A1, respectively.
For orientation: Real-time PCR tracks product formation cycle by cycle.

Data set [7] has as its system shoot apical meristems (SAMs) of clv1-1 seedlings. Kind of data set: In vitro SAM assay in clv1-1 seedlings. Conditions: 1 μM fusion protein, 8-d-old clv1-1 seedlings, n = 8. It is filed as in vivo, Arabidopsis. Here is the method:
as §3
The commonly known subtilase recognition site is Lys/Arg-Arg. Although in most CLE members of Arabidopsis the residue located before the conserved Arg of the 12-AA CLE motif is Lys (Additional file 3), for CLV3 the residue is Leu. We examined if a Leu69Lys substitution hampered the activity of the fusion protein. TH-ProCLV3Leu69Lys was produced in E. coli and applied to clv3-2 seedlings in vitro.
as §2

Data on 19 molecules can be found in paper PMC3878228 (BMC Plant Biology, 2013).

“Also recorded” adds a separate entry of the source.

For the molecule “Trx-His-HAHVQGLSNRKMMMMKMESEWVGANGEAEKAKTKGLGLHEELRTVPSGPDPLHHHVNPPRQPRNNFQLP”, the cleaved bond result in data set [1] (up to 48 hrs) is “K38-Met39, major”.
Turning to “EELRTVPSGPDPLHH [EEL-CLV3p15, CLV3p12 with additional 3 N-terminal residues]”, the “Concentration at which the peptide was active in the root assay (primary root length)” value (from here on “Concentration”) in data set [2] (n = 8) is reported as 100 nM.
Turning to “Trx-His-HAHVQGLSNRKMMMMMKMESEWVGANGEAEKAKTKGLGLHEEARTVPSGPDPLHHHVNPPRQPRNNFQLP”, the fragment found entry in [3] is on record as “CLV3p12 (RTVPSGPDPLHH); also recorded: CLV3p13 (RTVPSGPDPLHHH)”.
For the molecule “MRLSPGGPDPRHH [M-CLE1p13, synthesized CLE1 peptide with 1 N-terminal flanking residue]”, the “Fold less active than CLE1p12 in restricting the sizes of SAMs” value in data set [4] (clv3-2 seedlings, 8-d incubation, 10 nM to 10 μM peptide, n = 16) was “about 100 fold”.
With LRTVPSGPDPLHH, the cleaved bond entry in data set [1] (up to 3 d) was “L69-R70; also recorded: R70-T71; also recorded: H-H81”.
“LHEELRTVPSGPDPLHH [LHEEL-CLV3p17, CLV3p12 with additional 5 N-terminal residues]”: the “Concentration” value in data set [2] (n = 8) worked out at 10 nM.
As for RLSPGGPDPRHH, in data set [1] (up to 3 d), the fragment found result is recorded as “RLSPGGPDPRH; also recorded: RLSPGGPDPR; also recorded: LSPGGPDPRHH; also recorded: SPGGPDPRHH; also recorded: SPGGPDPR”.
Regarding RTVPSGPDPLHH, the cleaved bond entry in [1] (up to 3 d) was “R70-T71; also recorded: H-H81”.
On the same count and under the same terms, to LHEELRTVPSGPDPLHH belongs “Leu69-Arg70, 3 d; also recorded: Arg70-Thr71, 3 d; also recorded: H-H81, first_seen, 2 d”; to HEELRTVPSGPDPLHH, “Arg70-Thr71”.
In the case of “Trx-His-HAHVQGLSNRKMMMMMKMESEWVGANGEAEKAKTKGLGLHEELRTVPSGPDPLHHHVNPPRQPRNNFQLP”, the fragment found entry in data set [3] is “RTVPSGPDPLHH (CLV3p12); also recorded: RTVPSGPDPLHHH (CLV3p13)”.
FNESMRLSPGGPDPRHH: in [1] (up to 3 d), the cleaved bond result is listed as “Met-Arg, 3 d” and the fragment found result is given as “FNESMRLSPGGPDPRH; also recorded: FNESMRLSPGGPDPR; also recorded: FNESMRLSPGGPDP; also recorded: SMRLSPGGPDPR; also recorded: RLSPGGPDPR; also recorded: LSPGGPDPRHH; also recorded: SPGGPDPRHH; also recorded: SPGGPDPR”.
Consider EELRTVPSGPDPLHH, for which the cleaved bond result in data set [1] (up to 3 d) was “H-H81”.
As for LHEEARTVPSGPDPLHH, the cleaved bond result in data set [1] (up to 3 d) was “H-H81”.
For the molecule “Trx-His-HAHVQGLSNRKMMMMMKMESEWVGANGEAEKAKTKGLGLHEEKRTVPSGPDPLHHHVNPPRQPRNNFQLP”, the fragment found entry in data set [3] is given as “MMMMKMESEWVGANGEAEKAKTKGLGLHEEK”.
Turning to “RTVPSGPDPLHH [CLV3p12, chemically synthesized 12-AA CLV3 peptide corresponding to the CLE motif]”, in data set [2] (n = 8), the “Concentration” value turned out to be 10 nM. Besides, the “Interaction with CLV1” value in the data set with CLV1 is “Direct interaction”. Moreover, in data set [5], the “Function in promoting stem cell differentiation in vitro” value is “functional in promoting stem cell differentiation in both shoot and root meristems”.

B1: TH-ProCLV3: CLV3 proprotein without signal peptide, N-terminal Trx and His tags, produced in E. coli, 23.8 kD (protein, UniProt Q9XF04 22-96, looked up)
pro-form: SDLTQAHAHVQGLSNRKMMMMKMESEWVGANGEAEKAKTKGLGLHEELRTVPSGPDPLHHHVNPPRQPRNNFQLP
modifications: pro-form N-terminal thioredoxin and His tags
notes: CLV3 proprotein without signal peptide, N-terminal Trx and His tags, produced in E. coli, 23.8 kD
In the case of B1, in data set [6], the “Root growth of clv2-1 seedlings” value is given as “no evident growth inhibition”. For the same molecule, in data set [2] (1 μM TH-ProCLV3, 8-d-old Ler seedlings, n = 8), the “Root growth of Ler seedlings” value was “inhibited greatly”. For the same molecule, in [2] (1 μM TH-ProCLV3, Ler seedlings), the “Root meristem (RM) state in Ler, microscopic examination” value is given as “termination of RMs in Ler”. For the same molecule, the “Sizes of SAMs of clv3-2 seedlings after treatment” value (from here on “Sizes of SAMs of clv3-2 seedlings”) in data set [4] is “significant reduced sizes of SAMs”. The “Expression level of WUS in shoot apices relative to non-treated clv3-2 seedlings” value in the data set with WUS expression is “about 10%”. Further, the “Sizes of SAMs of clv1-1 seedlings after treatment” value (from here on “Sizes of SAMs of clv1-1 seedlings”) in data set [7] is recorded as “no evident reduction; also recorded: no significant differences”.

B2: TH-ProCLV3Leu69Ala: TH-ProCLV3 fusion protein with Leu69Ala substitution, produced in E. coli (protein, UniProt Q9XF04 22-96, looked up, variant L69A)
pro-form: SDLTQAHAHVQGLSNRKMMMMKMESEWVGANGEAEKAKTKGLGLHEEARTVPSGPDPLHHHVNPPRQPRNNFQLP
modifications: pro-form N-terminal thioredoxin and His tags
notes: TH-ProCLV3 fusion protein with Leu69Ala substitution, produced in E. coli
Consider B2, for which the “Sizes of SAMs of clv3-2 seedlings” value in data set [4] is “significantly larger than those treated with TH-ProCLV3”. Moreover, the “Expression level of WUS in shoot apices relative to non-treated clv3-2 seedlings” value in the data set on WUS expression is “about 50%”. Also, in data set [7], the “Sizes of SAMs of clv1-1 seedlings” value was “no significant differences”.

B3: TH-ProCLV3Leu69Lys: TH-ProCLV3 fusion protein with Leu69Lys substitution, produced in E. coli (protein, UniProt Q9XF04 22-96, looked up, variant L69K)
pro-form: SDLTQAHAHVQGLSNRKMMMMKMESEWVGANGEAEKAKTKGLGLHEEKRTVPSGPDPLHHHVNPPRQPRNNFQLP
modifications: pro-form N-terminal thioredoxin and His tags
notes: TH-ProCLV3 fusion protein with Leu69Lys substitution, produced in E. coli
B3: the “Sizes of SAMs of clv3-2 seedlings” value in data set [4] is “no significant difference”. Further, the “Sizes of SAMs of clv1-1 seedlings” value in data set [7] is recorded as “no significant differences”.
